Measured values reported in paper PMC11356900, “Synthesis, Structural Properties and Biological Activities of Novel Hydrazones of 2-, 3-, 4-Iodobenzoic Acid” (Molecules, 2024).

What was measured:
[1] = test system: Salmonella typhimurium ATCC 14028; assay: Broth microdilution MIC/MBC; details: Salmonella enterica
[2] = test system: Bacillus cereus ATCC 10876; assay: Broth microdilution MIC/MBC
[3] = test system: Candida krusei ATCC 14243; assay: Broth microdilution MIC/MFC; assay type: cell-based; details: Pichia kudriavzevii; for MIC: ATCC14243, read-out: MIC
Description: (§1) Procedures of in vitro antimicrobial assays are described in Supplementary Materials.
(§2) 2. Microbiology – in vitro antimicrobial activity assays […]
(§3) using the broth microdilution method according to the European Committee on Antimicrobial Susceptibility Testing (EUCAST) and Clinical and Laboratory Standards Institute guidelines against a panel of reference and clinical or saprophytic strains of mi croorganisms, including the Gram-positive bacteria: Staphylococcus aureus ATCC 43300 (Methi-cillin Resistant S. aureus – MRSA), Staphylococcus aureus ATCC 29213 (Methicillin Susceptible S. aureus – MSSA), Staph-ylococcus epidermidis ATCC 12228, Micrococcus luteus ATCC 10240, Bacillus subtilis ATCC 6633 and Bacillus cereus ATCC 10876), Gram-negative bacteria: Bordetella bronchiseptica ATCC 4617, Escherichia coli ATCC 25922, Klebsiella pneumoniae ATCC 13883, Proteus mirabilis ATCC 12453, Salmonella typhimurium ATCC 14028 and Pseudomonas aeruginosa ATCC 9027, and fungi belonging to yeasts: Candida albicans ATCC 10231, Candida albicans ATCC 2091, Candida parapsilosis ATCC 22019, Candida glabrata ATCC 90030 and Candida krusei ATCC 14243. The microorganisms belonging to ATCC originated from American Type Culture Collection, routinely used for the evaluation of antimicrobials. All the used microbial cultures were first subcultured on nutrient agar or Sabouraud agar at 35°C for 18-24 h or 30°C for 24-48 h for bacteria […]
(§4) The surface of Mueller-Hinton agar (for bacteria) and RPMI 1640 with MOPS (for fungi) were inoculated with the suspensions of bacterial or fungal species. Microbial suspensions were prepared in sterile saline with an optical density of McFarland standard scale 0.5. The samples containing the compounds were dissolved in dimethyl sulfoxide (DMSO).
(§5) Furthermore, the bacterial and fungal suspensions put onto the Petri dishes with solid media containing 2 mg/mL of the tested compounds followed were incubated at 37°C for 24h and 30°C for 48h for bacteria and fungi, respectively.
(§6) The inhibition of microbial growth was estimated comparing with a control culture prepared without any tested sam- […]
(§7) antifungal compounds, respectively.
(§8) Subsequently, MIC (Minimal Inhibitory Concentration) of the compounds was examined by the microdilution broth method, using their two-fold dilutions in Mueller-Hinton broth (for bacteria) and RPMI 1640 broth with MOPS (for fungi) prepared in the 96-well polystyrene plates. The final concentrations of the compounds ranged from 1000 to 0.488 µg/mL. Microbial suspensions were prepared in 0.85% NaCl with an optical density of 0.5 McFarland standard. Next each bacterial or fungal suspension was added per each well containing broth and various concentrations of the exam-ined compounds. After incubation, the MIC was assessed spectrophotometrically as the lowest concentration of the […]
(§9) Appropriate DMSO, growth and sterile controls were carried out. The medium with no tested substances was used as a control The MBC (Minimal Bactericidal Concentration) and MFC (Minimal Fungicidal Concentration) are defined as the lowest concentration of the compounds that is required to kill a particular bacterial or fungal species. The MBC/MFC was determined by removing the culture used for the MIC determination from each well and spotted onto the appro-priate agar medium. The plates were incubated under appropriate conditions for bacteria and fungi. The lowest com-pounds concentration with no visible growth observed was assessed as a bactericidal/fungicidal concentration. All the experiments were repeated three times and the representative data are presented.
(§10) 1. European Committee for Antimicrobial Susceptibility Testing (EUCAST) Determination of minimum inhibitory con-centrations (MICs) of antibacterial agents by broth dilution. EUCAST discussion document E. Dis 5.1. Clin. Microbiol.
(§11) 2. Clinical and Laboratory Standards Institute. Reference method for broth dilution antifungal susceptibility testing of […]

[4] = test system: Candida albicans ATCC 2091; assay: Broth microdilution MIC/MFC; assay type: cell-based; details: for MIC: ATCC2091, read-out: MIC; for MFC: ATCC2091, read-out: MFC
Description: as §1, §2, §3, §4, §5, §6, §7, §8, §9, §10, §11

[5] = test system: Candida albicans ATCC 10231; assay: Broth microdilution MIC/MFC; assay type: cell-based; details: for MIC: ATCC10231, read-out: MIC; for MFC: ATCC10231, read-out: MFC
Description: as §1, §2, §3, §4, §5, §6, §7, §8, §9, §10, §11

[6] = test system: Candida glabrata ATCC 90030; assay: Broth microdilution MIC/MFC; assay type: cell-based; details: Nakaseomyces glabratus; for MIC: ATCC90030, read-out: MIC; for MFC: ATCC90030, read-out: MFC
Description: as §1, §2, §3, §4, §5, §6, §7, §8, §9, §10, §11

[7] = test system: Candida parapsilosis ATCC 22019; assay: Broth microdilution MIC/MFC; assay type: cell-based; details: Lodderomyces parapsilosis; for MFC: ATCC22019, read-out: MFC; for MIC: ATCC22019, read-out: MIC
Description: as §1, §2, §3, §4, §5, §6, §7, §8, §9, §10, §11

[8] = test system: Escherichia coli ATCC 25922; assay: Broth microdilution MIC/MBC; details: ATCC25922
[9] = test system: Klebsiella pneumoniae ATCC 13883; assay: Broth microdilution MIC/MBC; details: ATCC13883
[10] = test system: Micrococcus luteus ATCC 10240; assay: Broth microdilution MIC/MBC
[11] = test system: Staphylococcus aureus ATCC 25923; assay: Broth microdilution MIC/MBC
[12] = test system: Proteus mirabilis ATCC 12453; assay: Broth microdilution MIC/MBC; details: ATCC12453
[13] = test system: Pseudomonas aeruginosa ATCC 9027; assay: Broth microdilution MIC/MBC; details: ATCC9027
[14] = test system: Staphylococcus epidermidis ATCC 12228; assay: Broth microdilution MIC/MBC; details: ATCC12228
[15] = test system: Bordetella bronchiseptica ATCC 4617; assay: Broth microdilution MIC/MBC; details: ATCC4617
[16] = test system: Bacillus subtilis ATCC 6633; assay: Broth microdilution MIC/MBC; details: ATCC6633
[17] = test system: Staphylococcus aureus ATCC 29213; assay: Broth microdilution MIC/MBC; details: ATCC29213
[18] = test system: Staphylococcus aureus ATCC 43300; assay: Broth microdilution MIC/MBC; details: ATCC43300 / MRSA
Candida spp. = assay: Broth microdilution, summary over reference yeasts; assay type: cell-based
Description: as §1, §2, §3, §4, §5, §6, §7, §8, §9, §10, §11

Gram-positive bacteria = assay: Broth microdilution, summary over reference Gram-positive bacteria; assay type: cell-based; details: range over the reference Gram-positive bacteria; read-out: MIC
Description: as §1, §2, §3, §4, §5, §6, §7, §8, §9, §10, §11

[19] = Staphylococcus aureus, ATCC25923
[20] = range over the reference Candida spp. strains

NNC(=O)c1ccc(I)cc1 [Compound 6, 4-iodobenzohydrazide]
161 to 162 °C: melting point
> 1000 µg/mL: MIC [1] | MIC ([2]; Bacillus cereus, ATCC10876) | MIC [3] | MIC [4] | MIC [5] | MIC [6] | MFC [7] | MIC [8] | MIC [9] | MBC ([10]; Micrococcus luteus, ATCC10240) | MIC [11, 19] | MIC [12] | MIC [13] | MBC [14] | MIC [15] | MBC [16] | MIC [17] | MIC [18]
1000 µg/mL: MIC [14] | MIC [16]
250 µg/mL: MIC [7]
500 µg/mL: MIC ([10]; Micrococcus luteus, ATCC10240)

O=C(N/N=C/c1cc(Cl)cc(I)c1O)c1ccccc1I [Compound 12, N-[(5-chloro-2-hydroxy-3-iodophenyl)methylidene]-2-iodobenzohydrazide]
> 1000 µg/mL: MBC ([2]; Bacillus cereus, ATCC10876) | MFC ([3]; ATCC14243, read-out: MFC) | MFC [4] | MFC [5] | MFC [6] | MFC [7] | MBC [11, 19] | MBC [16] | MBC [17] | MBC [18]
250 to 1000 µg/mL: MIC (Candida spp.; [20])
≥ 1000 µg/mL: MFC (Candida spp.; [20])
31.2 µg/mL: MIC ([10]; Micrococcus luteus, ATCC10240)
125 µg/mL: MIC [11, 19]
215 to 220 °C: melting point
1000 µg/mL: MIC [7] | MIC [16] | MIC [17] | MIC [18]
250 µg/mL: MIC [6] | MBC ([10]; Micrococcus luteus, ATCC10240) | MIC [14]
moderate or mild: antifungal activity in words (Candida spp.; reference yeasts from Candida spp.)
31.2 to 1000 µg/mL: MIC (Gram-positive bacteria)
500 µg/mL: MIC ([2]; Bacillus cereus, ATCC10876) | MIC [3] | MIC [4] | MIC [5] | MBC [14]

O=C(N/N=C/c1cc(Cl)cc(Cl)c1O)c1ccc(I)cc1 [Compound 24, N-[(3,5-dichloro-2-hydroxyphenyl)methylidene]-4-iodobenzohydrazide]
281 to 284 °C: melting point
500 µg/mL: MIC [5] | MIC ([10]; Micrococcus luteus, ATCC10240) | MIC [16]
250 µg/mL: MIC [6]
> 1000 µg/mL: MIC [1] | MIC ([2]; Bacillus cereus, ATCC10876) | MIC [3] | MFC [4] | MFC [5] | MFC [6] | MFC [7] | MIC [8] | MIC [9] | MBC ([10]; Micrococcus luteus, ATCC10240) | MIC [11, 19] | MIC [12] | MIC [13] | MIC [14] | MIC [15] | MBC [16] | MIC [18]
1000 µg/mL: MIC [4] | MIC [7] | MIC [17]
> 2000 µg/mL: MBC [17]

CCOc1cccc(/C=N/NC(=O)c2ccc(I)cc2)c1O [Compound 25, N-[(3-ethoxy-2-hydroxyphenyl)methylidene]-4-iodobenzohydrazide]
1000 µg/mL: MIC [14]
250 µg/mL: MIC [7]
62.5 µg/mL: MBC ([10]; Micrococcus luteus, ATCC10240)
200 to 207 °C: melting point
31.2 µg/mL: MIC ([10]; Micrococcus luteus, ATCC10240)
> 1000 µg/mL: MIC [1] | MIC ([2]; Bacillus cereus, ATCC10876) | MIC [3] | MIC [4] | MIC [5] | MIC [6] | MFC [7] | MIC [8] | MIC [9] | MIC [11, 19] | MIC [12] | MIC [13] | MBC [14] | MIC [15] | MIC [16] | MIC [17] | MIC [18]

O=C1CN(/N=C/c2ccc([N+](=O)[O-])o2)C(=O)N1 [NIT, nitrofurantoin, reference compound]
62.5 (62.5) µg/mL: MIC ([10]; Micrococcus luteus ATCC 10240)
62.5 µg/mL: MBC ([10]; Micrococcus luteus, ATCC10240) | MIC ([10]; Micrococcus luteus, ATCC10240) | MIC [12]
3.91 µg/mL: MIC [14] | MBC [16] | MIC [16]
15.6 µg/mL: MBC ([2]; Bacillus cereus, ATCC10876) | MIC [9] | MBC [11, 19] | MIC [11, 19]
15.62 (15.62) µg/mL: MIC ([11]; Staphylococcus aureus ATCC 25923)
15.62 µg/mL: MBC ([2]; Bacillus cereus ATCC 10876)
7.81 µg/mL: MIC ([2]; Bacillus cereus, ATCC10876) | MIC [8] | MBC [14] | MIC [18]
125 µg/mL: MIC [15]
31.2 µg/mL: MIC [1]
